Data on six compounds can be found in patent US20240287138A1, “CYCLIC PEPTIDES FOR INHIBITING TNF RECEPTOR 1 ACTIVITY” (Merck Sharp & Dohme LLC, priority 2023, published 2024).

Structures are written as SMILES. pIC50: −log10 of the molar value. Numbered stars: 1 amine (or outer) side, 2 acyl side, 3 side chain; on linkers, the order of the positions; unused ones are H or OH. Bridge positions count the residues as written; N and C are the ends. Square brackets hold non-standard residues; d marks the D form. Peptide text beside a SMILES is read from it. * marks the point of attachment. Trp(βS-Me,7-OMe) = COc1cccc2c([C@H](C)[C@H](N)C(=O)O)c[nH]c12; Phe(4-SO2NH2) = N[C@@H](Cc1ccc(S(N)(=O)=O)cc1)C(=O)O; Trp(7-CN) = N#Cc1cccc2c(C[C@H](N)C(=O)O)c[nH]c12; Trp(7-Cl) = N[C@@H](Cc1c[nH]c2c(Cl)cccc12)C(=O)O; Phe(4-CONH2) = NC(=O)c1ccc(C[C@H](N)C(=O)O)cc1; Phe(4-COOH) = N[C@@H](Cc1ccc(C(=O)O)cc1)C(=O)O; Trp(7-F) = N[C@@H](Cc1c[nH]c2c(F)cccc12)C(=O)O; Trp(7-aza) = N[C@@H](Cc1c[nH]c2ncccc12)C(=O)O; dPro(trans-4-F) = O=C(O)[C@H]1C[C@H](F)CN1; Pip(5R-OH) = O=C(O)[C@@H]1CC[C@@H](O)CN1; X1 = O=C([C@@H]1CC[C@H](N[*:1])C1)[*:2]; 1Nal = N[C@@H](Cc1cccc2ccccc12)C(=O)O; 2Nal = N[C@@H](Cc1ccc2ccccc2c1)C(=O)O; hPhe = N[C@@H](CCc1ccccc1)C(=O)O; 4Pal = N[C@@H](Cc1ccncc1)C(=O)O; NMeE = CN[C@@H](CCC(=O)O)C(=O)O; dHyp = O=C(O)[C@H]1C[C@H](O)CN1; Cit = NC(=O)NCCC[C@H](N)C(=O)O; X7 = CC[C@@H](C(=O)[*:1])[*:2]; αMeS = C[C@](N)(CO)C(=O)O; Carboxymethyl = O=C(O)C*; NMeA = CN[C@@H](C)C(=O)O; Nle = CCCC[C@H](N)C(=O)O; Sar = CNCC(=O)O

For this assay, the target named is T1, TNFα-induced NF-κB signal transduction pathway (TNFR1 signaling) in THP-1 cells (Homo sapiens, UniProt P19438).
T1 sequence (P19438 30-455): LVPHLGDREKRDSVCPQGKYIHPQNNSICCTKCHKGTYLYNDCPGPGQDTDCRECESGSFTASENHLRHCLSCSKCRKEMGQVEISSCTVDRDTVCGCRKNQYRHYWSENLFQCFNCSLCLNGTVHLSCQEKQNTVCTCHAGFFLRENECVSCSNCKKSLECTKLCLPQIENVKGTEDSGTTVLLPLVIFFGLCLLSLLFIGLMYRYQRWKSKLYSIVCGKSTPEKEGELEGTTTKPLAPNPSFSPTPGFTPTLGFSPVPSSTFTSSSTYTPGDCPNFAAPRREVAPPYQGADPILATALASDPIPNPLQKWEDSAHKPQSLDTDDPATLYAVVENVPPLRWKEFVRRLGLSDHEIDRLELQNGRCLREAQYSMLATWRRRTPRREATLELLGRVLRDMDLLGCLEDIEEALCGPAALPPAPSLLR
Briefly: THP-1 Lucia NF-κB reporter cell assay, inhibition of TNFα-induced NF-κB signaling. To be noted: THP-1 NF-κB Lucia reporter cells, 10 ng/mL TNFα, 16-18 h, secreted luciferase; read-out: THP-1 IC50. The format is cell-based. Put shortly: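 Read-out: secreted Lucia luciferase luminescence (QUANTI-Luc) from supernatant after 16-18 h, 37 °C, 10 ng/mL rhTNFα. Peptide pretreatment 1 h at 37 °C; 20,000 cells/well, selection antibiotics omitted. IC50 via 4-parameter logistic model against min/max controls.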
For orientation: pIC50 means the IC50 on a negative log10 scale, so that one unit is a factor of ten. Take `C[C@H]1C(=O)N[C@@H](CC(N)=O)C(=O)N[C@@H](Cc2ccncc2)C(=O)N[C@@H](Cc2c[nH]c3ccccc23)C(=O)N[C@@](C)(CO)C(=O)N[C@@H](Cc2ccc(C(=O)O)cc2)C(=O)N[C@@H](Cc2ccc(O)cc2)C(=O)N(C)CC(=O)N[C@@H](Cc2c[nH]c3ccccc23)C(=O)N[C@H](C(N)=O)CSCC(=O)N[C@@H](CCc2ccccc2)C(=O)N[C@@H](Cc2ccc(O)cc2)C(=O)N[C@@H](CO)C(=O)N[C@@H](Cc2c[nH]c3c(F)cccc23)C(=O)N1C` [SEQ ID NO. 263] ({CH2CO}-[hPhe]YS[Trp(7-F)][NMeA]N[4Pal]W[αMeS][Phe(4-COOH)]Y[Sar]WC-NH2; thioether N-14): the pIC50 was 8.33. The same measure for `CCCC[C@@H]1NC(=O)[C@@H]2CC[C@@H](C2)NC(=O)[C@H]([C@@H](C)c2c[nH]c3c(OC)cccc23)NC(=O)CN(C)C(=O)[C@H](Cc2ccc(C(N)=O)cc2)NC(=O)[C@H](Cc2ccc(C(N)=O)cc2)NC(=O)[C@](C)(CO)NC(=O)[C@H](Cc2c[nH]c3c(C#N)cccc23)NC(=O)[C@H](Cc2ccc(C(=O)O)cc2)NC(=O)[C@H](CC(N)=O)NC(=O)[C@H]2C[C@H](F)CN2C(=O)[C@H](Cc2c[nH]c3ccccc23)NC(=O)[C@@H]2CC[C@@H](O)CN2C(=O)[C@H](Cc2ccncc2)NC1=O` [SEQ ID NO. 114] (cyclo([4Pal][Pip(5R-OH)]W[dPro(trans-4-F)]N[Phe(4-COOH)][Trp(7-CN)][αMeS][Phe(4-CONH2)][Phe(4-CONH2)][Sar][Trp(βS-Me,7-OMe)][X1][Nle])): 9.05; for `CCCC[C@@H]1NC(=O)[C@@H]2CC[C@@H](C2)NC(=O)[C@H]([C@@H](C)c2c[nH]c3c(OC)cccc23)NC(=O)CN(C)C(=O)[C@H](Cc2ccc(C(=O)O)cc2)NC(=O)[C@H](Cc2ccc(S(N)(=O)=O)cc2)NC(=O)[C@](C)(CO)NC(=O)[C@H](Cc2c[nH]c3c(C#N)cccc23)NC(=O)[C@H](Cc2ccc(C(=O)O)cc2)NC(=O)[C@H](CC(N)=O)NC(=O)[C@H]2C[C@H](OCC(=O)O)CN2C(=O)[C@H](Cc2c[nH]c3ncccc23)NC(=O)[C@@H]2CC[C@@H](O)CN2C(=O)[C@H](Cc2ccncc2)NC1=O` [SEQ ID NO. 4] (cyclo([4Pal][Pip(5R-OH)][Trp(7-aza)][dHyp](Carboxymethyl)N[Phe(4-COOH)][Trp(7-CN)][αMeS][Phe(4-SO2NH2)][Phe(4-COOH)][Sar][Trp(βS-Me,7-OMe)][X1][Nle])): 9.30. In the case of `CCCC[C@@H]1NC(=O)[C@H](CC)SC[C@@H](C(N)=O)NC(=O)[C@H]([C@@H](C)c2c[nH]c3c(OC)cccc23)NC(=O)CN(C)C(=O)[C@H](Cc2ccc(O)cc2)NC(=O)[C@H](Cc2ccc(C(N)=O)cc2)NC(=O)[C@](C)(CO)NC(=O)[C@H](Cc2c[nH]c3c(Cl)cccc23)NC(=O)[C@H](Cc2ccc(C(=O)O)cc2)NC(=O)[C@H](CC(N)=O)NC(=O)[C@H](CCC(=O)O)N(C)C(=O)[C@H](Cc2c[nH]c3ncccc23)NC(=O)[C@@H]2CC[C@@H](O)CN2C(=O)[C@H](Cc2ccncc2)NC1=O` [SEQ ID NO. 168] ([Nle][4Pal][Pip(5R-OH)][Trp(7-aza)][NMeE]N[Phe(4-COOH)][Trp(7-Cl)][αMeS][Phe(4-CONH2)]Y[Sar][Trp(βS-Me,7-OMe)]C-NH2; linker N-14 via X7) it was 8.92; in that of `CN1CC(=O)N[C@@H](Cc2c[nH]c3ccccc23)C(=O)N[C@H](C(N)=O)CSCC(=O)N[C@@H](CCCCN)C(=O)N[C@@H](Cc2ccc(O)cc2)C(=O)N[C@@H](CO)C(=O)N[C@@H](Cc2c[nH]c3ccccc23)C(=O)N2CCC[C@@H]2C(=O)N[C@@H](CCCNC(N)=O)C(=O)N[C@@H](Cc2ccncc2)C(=O)N[C@@H](Cc2c[nH]c3ccccc23)C(=O)N[C@@](C)(CO)C(=O)N[C@@H](Cc2ccc(C(=O)O)cc2)C(=O)N[C@@H](Cc2ccc(O)cc2)C1=O` [SEQ ID NO. 256] ({CH2CO}-KYSW[dP][Cit][4Pal]W[αMeS][Phe(4-COOH)]Y[Sar]WC-NH2; thioether N-14), 8.21; in that of `C[C@H]1C(=O)N[C@@H](CC(N)=O)C(=O)N[C@@H](Cc2ccncc2)C(=O)N[C@@H](Cc2ccc3ccccc3c2)C(=O)N[C@@](C)(CO)C(=O)N[C@@H](Cc2ccc(C(=O)O)cc2)C(=O)N[C@@H](Cc2ccc(O)cc2)C(=O)N(C)CC(=O)N[C@@H](Cc2c[nH]c3ccccc23)C(=O)N[C@H](C(N)=O)CSCC(=O)N[C@@H](CCCCN)C(=O)N[C@@H](Cc2ccncc2)C(=O)N[C@@H](CO)C(=O)N[C@@H](Cc2cccc3ccccc23)C(=O)N1C` [SEQ ID NO. 227] ({CH2CO}-K[4Pal]S[1Nal][NMeA]N[4Pal][2Nal][αMeS][Phe(4-COOH)]Y[Sar]WC-NH2; thioether N-14), 7.87.
